The values below come from patent publication US20250179083A1, “TRICYCLIC TRIAZOLO COMPOUNDS AS DGK INHIBITORS” (Incyte Corporation, priority 2023, published 2025).

SMILES strings stand for the structures. Some results are limits rather than exact numbers.

For one assay, the target named is T1, DGKα (Homo sapiens, UniProt P23743).
T1 construct: His; purchased Signal Chem D21-10BH
Nature of the assay: In vitro DGKα inhibition assay (ADP-Glo). It is filed as biochemical. The conditions noted are these: His-tagged human recombinant DGKα 0.1 nM, 50 μM ATP, 20 μM DLG, 90 minute incubation. Put shortly: (§1)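 His-tagged human DGKα (0.1 nM, 50 μM ATP) or DGKζ (0.4 nM, 30 μM ATP), each with 20 μM DLG lipid substrate, in Tris pH 7.5 buffer with Mg2+, Ca2+, CHAPS.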
On the technique in general: ADP-Glo turns the ADP formed in a reaction into a luminescent signal.

Another assay addresses T2, DGKζ (Homo sapiens, UniProt Q13574).
T2 construct: His; purchased Signal Chem D30-10H
Nature of the assay: In vitro DGKζ inhibition assay (ADP-Glo). It is filed as biochemical. The conditions noted are these: His-tagged human recombinant DGKζ 0.4 nM, 30 μM ATP, 20 μM DLG, 90 minute incubation. An outline of the steps: as §1

T1 sequence (P23743 whole entry): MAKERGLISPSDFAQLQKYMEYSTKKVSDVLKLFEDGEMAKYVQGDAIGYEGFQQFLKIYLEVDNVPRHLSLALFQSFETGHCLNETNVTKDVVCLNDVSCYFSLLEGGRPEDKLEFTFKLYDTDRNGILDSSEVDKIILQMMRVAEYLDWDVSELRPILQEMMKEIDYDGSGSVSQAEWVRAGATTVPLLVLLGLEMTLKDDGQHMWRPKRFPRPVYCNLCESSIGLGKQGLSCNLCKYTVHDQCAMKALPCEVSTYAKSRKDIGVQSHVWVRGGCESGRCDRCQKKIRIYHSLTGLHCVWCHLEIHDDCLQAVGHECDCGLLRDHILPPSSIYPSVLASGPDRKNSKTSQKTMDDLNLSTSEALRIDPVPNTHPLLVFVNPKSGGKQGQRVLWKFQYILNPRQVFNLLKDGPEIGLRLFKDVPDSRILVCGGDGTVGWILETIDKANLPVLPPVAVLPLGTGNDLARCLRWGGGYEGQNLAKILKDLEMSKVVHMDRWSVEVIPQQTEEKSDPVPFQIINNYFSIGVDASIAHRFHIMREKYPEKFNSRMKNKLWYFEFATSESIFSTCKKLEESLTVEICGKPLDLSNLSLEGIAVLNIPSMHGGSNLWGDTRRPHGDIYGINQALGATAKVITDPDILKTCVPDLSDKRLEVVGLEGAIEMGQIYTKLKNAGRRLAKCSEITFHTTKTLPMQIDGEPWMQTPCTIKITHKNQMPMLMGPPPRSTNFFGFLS
T2 sequence (Q13574 whole entry): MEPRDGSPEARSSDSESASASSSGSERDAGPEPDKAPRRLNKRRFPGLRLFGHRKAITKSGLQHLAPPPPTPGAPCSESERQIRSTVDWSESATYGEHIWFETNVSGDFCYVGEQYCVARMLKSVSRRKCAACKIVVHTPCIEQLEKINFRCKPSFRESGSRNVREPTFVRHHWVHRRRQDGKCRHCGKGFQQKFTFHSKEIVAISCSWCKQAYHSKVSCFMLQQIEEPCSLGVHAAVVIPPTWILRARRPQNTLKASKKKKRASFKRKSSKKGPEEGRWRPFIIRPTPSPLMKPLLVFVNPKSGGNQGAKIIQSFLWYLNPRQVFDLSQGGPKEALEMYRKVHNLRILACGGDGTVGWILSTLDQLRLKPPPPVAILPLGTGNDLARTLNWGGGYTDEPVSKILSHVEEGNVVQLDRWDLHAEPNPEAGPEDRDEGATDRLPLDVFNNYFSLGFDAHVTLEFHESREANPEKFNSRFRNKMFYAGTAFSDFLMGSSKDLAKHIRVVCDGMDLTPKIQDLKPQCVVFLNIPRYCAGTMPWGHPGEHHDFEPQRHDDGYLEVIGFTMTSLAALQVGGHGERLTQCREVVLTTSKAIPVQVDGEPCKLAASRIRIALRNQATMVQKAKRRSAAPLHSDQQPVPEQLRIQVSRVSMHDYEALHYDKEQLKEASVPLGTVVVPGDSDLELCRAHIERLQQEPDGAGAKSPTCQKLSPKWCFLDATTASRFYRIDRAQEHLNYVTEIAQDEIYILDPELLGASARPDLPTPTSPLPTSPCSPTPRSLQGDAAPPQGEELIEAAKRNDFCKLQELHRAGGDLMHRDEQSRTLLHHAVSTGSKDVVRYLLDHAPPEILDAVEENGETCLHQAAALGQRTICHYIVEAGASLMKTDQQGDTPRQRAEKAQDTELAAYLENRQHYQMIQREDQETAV

As a reminder, the IC50 is the concentration at which inhibition is half-maximal. With `CC[C@H](c1ccc(C(F)(F)F)cc1)N1C[C@H](C)N(c2nc3nncn3c3c2nc(C)n3C[C@@H]2CCCO2)C[C@H]1C` [Example 90, 4-((2S,5R)-2,5-dimethyl-4-((R)-1-(4-(trifluoromethyl)phenyl)propyl)piperazin-1-yl)-2-methyl-1-(((S)-tetrahydrofuran-2-yl)methyl)-1H-[1,2,4]triazolo[3,4-b]purine], the IC50 at DGKα and at DGKζ was less than 0.02 µM each time.
